Structures can show the parent of a compound that is named as a salt.
Legend:
[1] = tested on: FaDu human pharyngeal squamous cell carcinoma line; assay: In vivo antitumor activity in FaDu cancer-bearing nude mice; details: free bodies, 4 mg/kg, caudal vein, 3 times in 7-day intervals, FIG. 2
Method: (§1) FaDu (obtained from the American Type Culture Collection), which is a human pharyngeal squamous cell carcinoma line, was cultured and grown in a 10% bovine fetal serum-containing MEM culture. The cells were separated from the flask using 0.05% Trypsin-EDTA solution and collected. After washing with PBS, the cells were suspended in PBS so as to be 5×10^7 cells/mL and kept on ice. 0.1 mL of cell suspension liquid were subcutaneously injected in the right ventral portion of 6-week old nude mice (Charles River Laboratories Japan, Inc.). Each mouse was observed daily, and notes were made appropriately in cases where abnormal conditions were found. Calipers were used to measure the tumor size over time, and the tumor size was calculated based on the calculation formula: major axis×(minor axis squared)÷2. At the point when the tumor size was 100 to 200 mm^3, the mice were separated into groups such that the average values of the tumor sizes and the mouse body weights were uniform among the test groups (five mice per test group), and the drug was administered into the caudal vein (0.2 mL/20 g; 3 times in 7-day intervals).

[2] = tested on: ACHN human renal cancer cell line; assay: In vivo antitumor activity in ACHN cancer-bearing nude mice; details: free body, 2 mg/kg, 3 mg/kg and 4 mg/kg, 45 days after the start of sample administration, FIG. 3
Method: ACHN (obtained from the American Type Culture Collection), which is a human renal cancer cell line, was cultured and grown in a 10% bovine fetal serum-containing MEM culture. The cells were separated from the flask using 0.05% Trypsin-EDTA solution and collected. After washing with PBS, the cells were suspended in PBS so as to be 5×10^7 cells/mL and then kept on ice. 0.1 mL of cell suspension liquid were subcutaneously injected in the right ventral portion of 6-week old nude mice (Charles River Laboratories Japan, Inc.). Each mouse was observed daily, and notes made appropriately in cases where abnormal conditions were found. Calipers were used to measure the tumor size over time, and the tumor size was calculated based on the calculation formula: major axis×(minor axis squared)÷2. At the point when the tumor size was 150 to 200 mm^3, the mice were separated into groups such that the average values of the tumor sizes and the body weights of mice were uniform among the test groups (five mice per test group), and the drug was administered into the caudal vein (0.2 mL/20 g; 3 times in 7-day intervals).

[3] = Maximum tolerated dose in nude mice; details: mouse, in vivo, intravenous, free bodies
Method: as §1, with “At the point when the tumor size was 100 to 200 mm^3, the mice were separated into groups such that the average values of the tumor sizes and the mouse body weights were uniform among the test groups (five mice per test group), and the drug was administered into the caudal vein (0.2 mL/20 g; 3 times in 7-day intervals).” left out
ACHN (obtained from the American Type Culture Collection), which is a human renal cancer cell line, was cultured and grown in a 10% bovine fetal serum-containing MEM culture. […] Calipers were used to measure the tumor size over time, and the tumor size was calculated based on the calculation formula: major axis×(minor axis squared)÷2. […]

## C=C1C[C@@H]2CC[C@@]34C[C@H]5O[C@H]6[C@@H](O3)[C@H]3O[C@H](CC[C@@H]3O[C@H]6[C@H]5O4)CC(=O)C[C@@H]3[C@@H](OC)[C@@H](C[C@H](O)CN)O[C@H]3C[C@H]3O[C@@H](CC[C@@H]1O2)C[C@@H](C)C3=C [Eribulin mesylate, eribulin mesylate]
[1]
  Tumor-reducing effect (average tumor volume): a tumor-reducing effect was not obtained
[2]
  Tumor volume versus non-treated group: no significant difference was found
[3]
  MTD: 4 mg/kg
